Common to all, as to type: cell-based
In one assay the test system is BHK-21 cells. Kind of assay: Anti-fibrosis activity test: inhibition of BHK-21 cell proliferation (CCK-8). To be noted: Mesocricetus auratus, BHK-21, 48 h, CCK-8, 48 hours after administration. A digest of the protocol:
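BHK-21 cells seeded at 2×10^4 cells/mL, allowed to adhere 24 h at 37° C, 5% CO2, then exposed to compounds at graded concentrations in triplicate for 48 h. CCK-8 added for 2 h and absorbance read at 450 nm; inhibition rate taken as (1−Ai/Ao)×100% and IC50 fitted.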

The test system of assay [1] is human lung fibroblasts HFL1. Description: Anti-fibrosis activity test: inhibition of proliferation of human lung fibroblasts HFL1 (CCK-8). To be noted: Homo sapiens, HFL1, 48 h, human lung fibroblasts HFL1, CCK-8, 48 hours. The method in brief:
(§1)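 IC50 values derive from CCK-8 absorbance (450 nm, 2 h reagent incubation) measured after a 48 h exposure to test compounds. Before dosing, cells plated at 2×10^4 cells/mL had attached for 24 h under 5% CO2 at 37° C; triplicate wells per concentration.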

The subject of assay [2] is human hepatic stellate cells LX-2. Description: Anti-fibrosis activity test: inhibition of proliferation of human hepatic stellate cells LX-2 (CCK-8). To be noted: Homo sapiens, 48 h, human hepatic stellate cells LX-2, CCK-8, 48 hours. The method in brief: as §1
Assay [3] concerns human fibrosarcoma cells HT-1080. Description: Anti-fibrosis activity test: inhibition of proliferation of human fibrosarcoma cells HT-1080 (CCK-8). The note with it: Homo sapiens, HT-1080, 48 h, human fibrosarcoma cells HT-1080, CCK-8, 48 hours. The method in brief:
as §1

The subject of assay [4] is human dermal fibroblasts CCC-ESF-1. Kind of assay: Anti-fibrosis activity test: inhibition of proliferation of human dermal fibroblasts CCC-ESF-1 (CCK-8). The note with it: Fibroblast; human dermal fibroblasts CCC-ESF-1, CCK-8, 48 hours. The method in brief: as §1
The subject of assay [5] is human embryonic lung fibroblast IMR-90. Kind of assay: Anti-fibrosis activity test: inhibition of proliferation of human embryonic lung fibroblast IMR-90 (CCK-8). The note with it: human embryonic lung fibroblast IMR-90, CCK-8, 48 hours. A digest of the protocol: as §1
The test system of assay [6] is cardiac fibroblast RAT-iCell-C002. Description: Anti-fibrosis activity test: inhibition of proliferation of cardiac fibroblast RAT-iCell-C002 (CCK-8). The note with it: cardiac fibroblast RAT-iCell-C002, CCK-8, 48 hours. A digest of the protocol: as §1
For assay [7], the system named is mouse macrophages (RAW264.7). Description: Lipopolysaccharide-induced NO secretion in macrophages (Griess). To be noted: RAW264.7, LPS 1 μg/ml, a/b isomers given as first/second symbol, read-out: IC50 (μM), inhibition of lipopolysaccharide-induced NO secretion in macrophages. Here is the method:
The effects of the compounds of the present application on the lipopolysaccharide-induced NO secretion in macrophage was tested Principle: Anti-inflammatory drug activity screening is to detect the inhibitory effect of compounds on NO production in the mouse macrophages (RAW264.7). When immune cells are stimulated by microbial endotoxin, inflammatory mediators, etc., a large amount of induced NO synthase (iNOS) is produced, and thus NO is generated for immune response. Accordingly, the inhibition of NO production can serve as a direct indicator of the anti-inflammatory activity of the compound. The activity of the compound to inhibit NO production at the cellular level is directly evaluated in the abovementioned test model, thereby reflecting the anti-inflammatory activity of the compound. In this experiment, the content of NO in the medium was detected by Gris kit (Molecular probes, G-7921). Macrophages (Raw264.7) were cultured in DMEM medium containing 10% fetal bovine serum, with the cell concentration adjusted. The cells were seeded in 24-well cell culture plates, cultured in an incubator, and the test samples in different concentrations were added every other day. The blank medium was used as a blank control, and commercially available indomethacin and resveratrol were employed as positive controls. After the addition of lipopolysaccharide (LPS, 1 μg/ml), incubation was performed for 24 hours. Then the supernatant culture solution was taken, to […] reagent was added, and the absorbance value was measured by a microplate reader at 548 nm. Inhibition rate=([…])×100%.

Like-named read-outs stand apart in the source and are kept apart here. Bounds are passed on as bounds.

Consider `CCn1c2c(c(=O)c3cc(F)ccc31)C(=O)n1cccc1-2` [Compound 104a, 4-Ethyl-7-fluoro-9H-pyrrolizino[1,2-b]quinoline-9,10(4H)-dione], for which the IC50 with BHK-21 cells is < 0.05 mM; in assay [1], 0.05 to 5 mM; in assay [2], 0.05 to 5 mM; in assay [3], 0.05 to 5 mM; in assay [4] it was 0.05 to 5 mM; in assay [5] it was 0.05 to 5 mM. The IC50 is 0.05 to 5 mM in assay [6] (Cardiac fibroblast, 48 h) and 1 to 10 µM in assay [7] (Mus musculus, RAW264.7, 24 h).

As for `CCOc1c2c(nc3ccc(F)cc13)-c1cccn1C2=O` [Compound 104b, 9-ethoxy-7-fluoro-10H-pyrrolizino[1,2-b]quinolin-10-one], the IC50 (in the assay on BHK-21 cells; in assay [1]; in assay [2]; in assay [3]; in assay [4]; in assay [5]) was 0.05 to 5 mM throughout. The IC50 was 0.05 to 5 mM in assay [6] (Cardiac fibroblast, 48 h) and 1 to 10 µM in assay [7] (Mus musculus, RAW264.7, 24 h).

Regarding `CC(C)n1c2c(c(=O)c3cc(F)ccc31)C(=O)n1cccc1-2` [Compound 108a, 7-Fluoro-4-isopropyl-9H-pyrrolizino[1,2-b]quinoline-9,10(4H)-dione], the IC50 with BHK-21 cells is 0.05 to 5 mM; in assay [1], 0.05 to 5 mM; in assay [2], 0.05 to 5 mM; in assay [3] it was 5 to 20 mM; in assay [4], 0.05 to 5 mM; in assay [5] it was 0.05 to 5 mM. Further, the IC50 in assay [6] (Cardiac fibroblast, 48 h) was 0.05 to 5 mM; in assay [7] (Mus musculus, RAW264.7, 24 h), 1 to 10 µM.

As to `CC(C)Oc1c2c(nc3ccc(F)cc13)-c1cccn1C2=O` [Compound 108b, 7-fluoro-9-isopropoxy-10H-pyrrolizino[1,2-b]quinolin-10-one], the IC50 in the assay with BHK-21 cells fell in the range of 0.05 to 5 mM; in assay [1] it was 0.05 to 5 mM; in assay [2] it was 0.05 to 5 mM; in assay [3] it was 5 to 20 mM; in assay [4], 0.05 to 5 mM; in assay [5] it was 0.05 to 5 mM. Moreover, the IC50 in assay [6] (Cardiac fibroblast, 48 h) was in the range of 0.05 to 5 mM; in assay [7] (Mus musculus, RAW264.7, 24 h), 1 to 10 µM.

With `C=CCn1c2c(c(=O)c3cc(F)ccc31)C(=O)n1cccc1-2` [Compound 109a, 4-Allyl-7-fluoro-9H-pyrrolizino[1,2-b]quinoline-9,10(4H)-dione], the IC50 is 0.05 to 5 mM with BHK-21 cells; 0.05 to 5 mM in assay [1]; 0.05 to 5 mM in assay [2]; 0.05 to 5 mM in assay [3]; 0.05 to 5 mM in assay [4]; < 0.05 mM in assay [5]. Moreover, the IC50 was in the range of 0.05 to 5 mM in assay [6] (Cardiac fibroblast, 48 h) and 0.1 to 1 µM in assay [7] (Mus musculus, RAW264.7, 24 h).

On to `C=CCOc1c2c(nc3ccc(F)cc13)-c1cccn1C2=O` [Compound 109b, 9-(allyloxy)-7-fluoro-10H-pyrrolizino[1,2-b]quinolin-10-one], for which the IC50 (with BHK-21 cells; in assay [1]; in assay [2]; in assay [3]; in assay [4]; in assay [5]) was 0.05 to 5 mM in each case. The IC50 in assay [6] (Cardiac fibroblast, 48 h) is 0.05 to 5 mM; in assay [7] (Mus musculus, RAW264.7, 24 h) it was 0.1 to 1 µM.

For `O=C1c2c(n(CCO)c3ccc(F)cc3c2=O)-c2cccn21` [Compound 114a, 7-Fluoro-4-(2-hydroxyethyl)-9H-pyrrolizino[1,2-b]quinoline-9,10(4H)-dione], the IC50 with BHK-21 cells is < 0.05 mM; in assay [1] it was 0.05 to 5 mM; in assay [2] it was 0.05 to 5 mM; in assay [3], 0.05 to 5 mM; in assay [4], 0.05 to 5 mM; in assay [5], 0.05 to 5 mM. Moreover, the IC50 in assay [6] (Cardiac fibroblast, 48 h) is 0.05 to 5 mM; in assay [7] (Mus musculus, RAW264.7, 24 h), 1 to 10 µM.

Take `O=C1c2c(nc3ccc(F)cc3c2OCCO)-c2cccn21` [Compound 114b, 7-fluoro-9-(2-hydroxyethoxy)-10H-pyrrolizino[1,2-b]quinolin-10-one]: the IC50 (in the assay on BHK-21 cells; in assay [1]; in assay [2]; in assay [3]; in assay [4]; in assay [5]) was 0.05 to 5 mM each time. Moreover, the IC50 in assay [6] (Cardiac fibroblast, 48 h) was 0.05 to 5 mM; in assay [7] (Mus musculus, RAW264.7, 24 h), 1 to 10 µM.

Regarding `O=C1c2cc(F)ccc2N(c2ccc(Cl)cc2)C2c3cccn3C(=O)C12` (centres unmarked) [Compound 133a, 4-(4-Chlorophenyl)-7-fluoro-3b,9a-dihydro-9H-pyrrolizino[1,2-b]quinoline-9,10(4H)-dione], the IC50 with BHK-21 cells lay in the range of 0.05 to 5 mM; in assay [1] it was 0.05 to 5 mM; in assay [2] it was 0.05 to 5 mM; in assay [3] it was 0.05 to 5 mM; in assay [4] it was 0.05 to 5 mM; in assay [5], 5 to 20 mM. In addition, the IC50 in assay [6] (Cardiac fibroblast, 48 h) fell in the range of 0.05 to 5 mM; in assay [7] (Mus musculus, RAW264.7, 24 h), 10 to 50 µM.

Turning to `O=C1c2c(nc3ccc(F)cc3c2Oc2ccc(Cl)cc2)-c2cccn21` [Compound 133b, 9-(4-chlorophenoxy)-7-fluoro-10H-pyrrolizino[1,2-b]quinolin-10-one], the IC50 (with BHK-21 cells; in assay [1]; in assay [2]; in assay [3]; in assay [4]; in assay [5]) was 0.05 to 5 mM in each case. The IC50 in assay [6] (Cardiac fibroblast, 48 h) lay within 0.05 to 5 mM; in assay [7] (Mus musculus, RAW264.7, 24 h) it was 1 to 10 µM.

In the case of `O=C1c2c(n(C3CC3)c3ccc(F)cc3c2=O)-c2cccn21` [Compound 144a, 4-Cyclopropyl-7-fluoro-9H-pyrrolizino[1,2-b]quinoline-9,10(4H)-dione], the IC50 in the assay on BHK-21 cells is 0.05 to 5 mM; in assay [1], 0.05 to 5 mM; in assay [2], < 0.05 mM; in assay [3], 0.05 to 5 mM; in assay [4], 0.05 to 5 mM; in assay [5], 0.05 to 5 mM. Moreover, the IC50 was 0.05 to 5 mM in assay [6] (Cardiac fibroblast, 48 h) and 1 to 10 µM in assay [7] (Mus musculus, RAW264.7, 24 h).

As to `O=C1c2c(nc3ccc(F)cc3c2OC2CC2)-c2cccn21` [Compound 144b, 9-cyclopropoxy-7-fluoro-10H-pyrrolizino[1,2-b]quinolin-10-one], the IC50 was 0.05 to 5 mM with BHK-21 cells; 0.05 to 5 mM in assay [1]; < 0.05 mM in assay [2]; 0.05 to 5 mM in assay [3]; 0.05 to 5 mM in assay [4]; 0.05 to 5 mM in assay [5]. Besides, the IC50 is 0.05 to 5 mM in assay [6] (Cardiac fibroblast, 48 h) and 1 to 10 µM in assay [7] (Mus musculus, RAW264.7, 24 h).

Regarding `O=C1c2c(n(C(=O)c3ccco3)c3ccc(F)cc3c2=O)-c2cccn21` [Compound 150a, 7-Fluoro-4-(furan-2-carbonyl)-9H-pyrrolizino[1,2-b]quinoline-9,10(4H)-dione], the IC50 was 0.05 to 5 mM in the assay with BHK-21 cells; 0.05 to 5 mM in assay [1]; 0.05 to 5 mM in assay [2]; 0.05 to 5 mM in assay [3]; 0.05 to 5 mM in assay [4]; < 0.05 mM in assay [5]. The IC50 in assay [6] (Cardiac fibroblast, 48 h) lay within 0.05 to 5 mM; in assay [7] (Mus musculus, RAW264.7, 24 h), 1 to 10 µM.

On to `O=C1c2c(n(Cc3ccc(Cl)cc3)c3c(C(F)(F)F)c(N4CCNCC4)ccc3c2=O)-c2cccn21` [Compound 487a, 4-(4-Chlorobenzyl)-6-(piperazin-1-yl)-5-(trifluoromethyl)-9H-pyrrolizino[1,2-b]quinoline-9,10(4H)-dione], for which the IC50 in assay [6] was < 0.05 mM; in assay [7] (24 hours), 0.1 to 1 µM.

As to `O=C1c2c(nc3c(C(F)(F)F)c(N4CCNCC4)ccc3c2OCc2ccc(Cl)cc2)-c2cccn21` [Compound 487b, 9-((4-chlorobenzyl)oxy)-6-(piperazin-1-yl)-5-(trifluoromethyl)-10H-pyrrolizino[1,2-b]quinolin-10-one], the IC50 in assay [6] fell in the range of 0.05 to 5 mM; in assay [7] (24 hours) it was 10 to 50 µM.

For the compound `COc1ccc2c(c1)c(CC(=O)O)c(C)n2C(=O)c1ccc(Cl)cc1` [indomethacin, reference compound], the IC50 in assay [7] (Mus musculus, RAW264.7, 24 h) fell in the range of 10 to 50 µM.

As for `Oc1ccc(C=Cc2cc(O)cc(O)c2)cc1` [resveratrol, reference compound], the IC50 in assay [7] (Mus musculus, RAW264.7, 24 h) lay in the range of 1 to 10 µM.

The values are drawn from patent publication US11040028B2, “Penicinotam derivative, preparation method and use thereof” (OCEAN UNIVERSITY OF CHINA, priority 2017, dated 2021).
